Data on 1 molecule can be found in ChEMBL document CHEMBL5620387, “Discovery of 4'-trifluoromethylchalcones as novel, potent and selective hCYP1B1 inhibitors without concomitant AhR activation” (Eur J Med Chem, 2023).

The structures appear in SMILES notation.

The target in one data set is Cytochrome P450 3A4 (Homo sapiens, UniProt P08684). Put plainly: Inhibition of human CYP3A4 measured after 3 mins incubation by fluorescence assay. In kind it is ADME.
Data set [1] concerns the target T1, Aryl hydrocarbon receptor (Homo sapiens, UniProt P35869).
T1 sequence (P35869 whole entry): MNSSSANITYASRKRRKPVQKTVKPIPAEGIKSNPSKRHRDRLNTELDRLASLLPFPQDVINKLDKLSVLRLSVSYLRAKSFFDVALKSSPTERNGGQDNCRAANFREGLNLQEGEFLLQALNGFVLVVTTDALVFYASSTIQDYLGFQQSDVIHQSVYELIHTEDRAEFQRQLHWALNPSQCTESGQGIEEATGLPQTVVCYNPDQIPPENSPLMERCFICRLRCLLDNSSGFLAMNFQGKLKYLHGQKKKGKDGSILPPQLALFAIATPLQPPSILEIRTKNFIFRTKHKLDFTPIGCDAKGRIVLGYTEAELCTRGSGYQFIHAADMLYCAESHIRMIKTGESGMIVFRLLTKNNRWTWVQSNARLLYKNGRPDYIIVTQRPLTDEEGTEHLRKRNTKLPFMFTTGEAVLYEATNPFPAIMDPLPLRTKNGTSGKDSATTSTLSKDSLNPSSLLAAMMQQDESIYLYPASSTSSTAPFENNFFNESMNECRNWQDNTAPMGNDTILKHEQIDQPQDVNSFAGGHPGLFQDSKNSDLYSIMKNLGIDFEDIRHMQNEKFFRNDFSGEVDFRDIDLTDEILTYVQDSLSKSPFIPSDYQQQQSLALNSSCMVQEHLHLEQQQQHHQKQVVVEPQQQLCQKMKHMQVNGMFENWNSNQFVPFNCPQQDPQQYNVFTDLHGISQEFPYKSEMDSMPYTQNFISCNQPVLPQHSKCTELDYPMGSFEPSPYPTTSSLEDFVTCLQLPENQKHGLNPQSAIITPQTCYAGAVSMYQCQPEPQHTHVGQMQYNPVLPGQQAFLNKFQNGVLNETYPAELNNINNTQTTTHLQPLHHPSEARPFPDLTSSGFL
Put plainly: Antagonist activity at aryl hydrocarbon receptor (unknown origin) expressed in HEK293T cells assessed as luciferase activity at 10 uM measured after 24 hrs. In kind it is toxicity, cell-based.

In the next data set the target is T2, Cytochrome P450 2A6 (Homo sapiens, UniProt P11509).
T2 sequence (P11509 whole entry): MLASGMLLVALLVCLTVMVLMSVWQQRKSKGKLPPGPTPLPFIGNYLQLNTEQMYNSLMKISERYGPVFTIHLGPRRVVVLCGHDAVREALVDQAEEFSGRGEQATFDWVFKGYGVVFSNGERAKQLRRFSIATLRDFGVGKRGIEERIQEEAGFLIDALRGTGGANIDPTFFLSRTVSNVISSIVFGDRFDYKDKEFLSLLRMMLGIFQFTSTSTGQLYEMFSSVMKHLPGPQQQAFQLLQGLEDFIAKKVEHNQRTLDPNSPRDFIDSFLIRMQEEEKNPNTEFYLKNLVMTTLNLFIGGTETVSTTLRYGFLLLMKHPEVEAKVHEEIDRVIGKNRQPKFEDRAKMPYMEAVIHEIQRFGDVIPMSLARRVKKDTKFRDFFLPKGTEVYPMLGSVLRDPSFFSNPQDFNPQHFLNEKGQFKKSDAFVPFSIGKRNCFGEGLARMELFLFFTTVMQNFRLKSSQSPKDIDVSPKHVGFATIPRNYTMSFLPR
The data set is described as follows: Inhibition of human CYP2A6 in human liver microsomes by LC-MS/MS analysis. In kind it is ADME, Microsome. Background: Liver microsomes are vesicles of endoplasmic reticulum, rich in cytochrome P450 enzymes.

The next data set addresses Cytochrome P450 2D6 (Homo sapiens, UniProt P10635). Put plainly: Inhibition of human CYP2D6 in human liver microsomes by LC-MS/MS analysis. In kind it is ADME, Microsome.
For the next data set, the target named is T3, Cytochrome P450 2C8 (Homo sapiens, UniProt P10632).
T3 sequence (P10632 whole entry): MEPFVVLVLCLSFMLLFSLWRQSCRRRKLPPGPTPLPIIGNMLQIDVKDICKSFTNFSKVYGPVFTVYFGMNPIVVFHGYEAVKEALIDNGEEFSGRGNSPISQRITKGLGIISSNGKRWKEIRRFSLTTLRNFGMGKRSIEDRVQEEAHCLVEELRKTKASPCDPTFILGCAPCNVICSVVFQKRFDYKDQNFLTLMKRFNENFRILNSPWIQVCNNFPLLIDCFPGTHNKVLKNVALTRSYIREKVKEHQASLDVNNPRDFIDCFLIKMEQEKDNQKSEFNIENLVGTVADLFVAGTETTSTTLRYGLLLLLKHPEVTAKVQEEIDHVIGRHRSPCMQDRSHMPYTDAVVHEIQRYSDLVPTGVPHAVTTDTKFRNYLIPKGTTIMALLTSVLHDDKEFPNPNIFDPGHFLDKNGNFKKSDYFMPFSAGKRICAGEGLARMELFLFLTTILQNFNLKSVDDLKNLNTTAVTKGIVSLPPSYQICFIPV
Put plainly: Inhibition of human CYP2C8 in human liver microsomes by LC-MS/MS analysis. The class given is ADME, Microsome.

Data set [2] addresses T4, Cytochrome P450 1A2 (Homo sapiens, UniProt P05177).
T4 sequence (P05177 whole entry): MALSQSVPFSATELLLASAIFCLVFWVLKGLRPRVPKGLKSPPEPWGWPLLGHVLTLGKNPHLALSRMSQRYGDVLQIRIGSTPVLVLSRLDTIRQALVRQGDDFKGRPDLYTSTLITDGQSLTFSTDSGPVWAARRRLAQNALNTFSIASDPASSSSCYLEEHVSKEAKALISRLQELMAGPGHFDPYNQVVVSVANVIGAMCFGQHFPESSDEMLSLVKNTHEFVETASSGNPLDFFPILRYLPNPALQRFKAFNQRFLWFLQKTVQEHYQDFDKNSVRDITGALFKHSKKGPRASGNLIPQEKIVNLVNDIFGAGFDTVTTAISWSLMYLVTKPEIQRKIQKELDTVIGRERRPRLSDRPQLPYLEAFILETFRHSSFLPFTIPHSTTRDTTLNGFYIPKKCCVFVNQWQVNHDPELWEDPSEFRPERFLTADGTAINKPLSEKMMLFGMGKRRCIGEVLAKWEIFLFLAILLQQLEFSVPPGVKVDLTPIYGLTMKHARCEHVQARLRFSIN
Put plainly: Inhibition of human CYP1A2 in human liver microsomes by LC-MS/MS analysis. The class given is ADME, Microsome.

The target of the next data set is Cytochrome P450 2C9 (Homo sapiens, UniProt P11712). The data set is described as follows: Inhibition of human CYP2C9 in human liver microsomes by LC-MS/MS analysis. The class given is ADME, Microsome.
Sequence of Cytochrome P450 2C9 (P11712 whole entry): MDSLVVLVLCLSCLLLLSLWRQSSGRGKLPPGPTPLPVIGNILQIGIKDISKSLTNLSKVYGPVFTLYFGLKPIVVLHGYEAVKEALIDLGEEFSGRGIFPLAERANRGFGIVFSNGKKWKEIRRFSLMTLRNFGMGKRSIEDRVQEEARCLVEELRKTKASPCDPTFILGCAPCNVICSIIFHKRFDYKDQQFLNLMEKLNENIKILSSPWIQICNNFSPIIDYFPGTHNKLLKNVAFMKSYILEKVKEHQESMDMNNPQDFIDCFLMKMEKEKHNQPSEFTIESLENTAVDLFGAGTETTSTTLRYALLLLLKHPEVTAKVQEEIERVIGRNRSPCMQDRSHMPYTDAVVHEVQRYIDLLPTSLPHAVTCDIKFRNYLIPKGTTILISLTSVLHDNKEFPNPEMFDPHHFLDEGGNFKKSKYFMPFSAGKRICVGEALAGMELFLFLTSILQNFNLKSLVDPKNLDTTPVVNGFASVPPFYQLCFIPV
Data set [3] has as its target T4, Cytochrome P450 1A2. Put plainly: Inhibition of human recombinant CYP1A2 assessed as fluorescence of resorufin. The class given is ADME.
Data set [4] can be described thus: Metabolic stability in human liver microsomes assessed as relative remaining concentration measured after 60 mins by LC-UV analysis. In kind it is ADME, Microsome. The settings on record: read-out: INH.
In another data set the target is Cytochrome P450 2C19 (Homo sapiens, UniProt P33261). Put plainly: Inhibition of human CYP2C19 in human liver microsomes by LC-MS/MS analysis. The class given is ADME, Microsome.
Sequence of Cytochrome P450 2C19 (P33261 whole entry): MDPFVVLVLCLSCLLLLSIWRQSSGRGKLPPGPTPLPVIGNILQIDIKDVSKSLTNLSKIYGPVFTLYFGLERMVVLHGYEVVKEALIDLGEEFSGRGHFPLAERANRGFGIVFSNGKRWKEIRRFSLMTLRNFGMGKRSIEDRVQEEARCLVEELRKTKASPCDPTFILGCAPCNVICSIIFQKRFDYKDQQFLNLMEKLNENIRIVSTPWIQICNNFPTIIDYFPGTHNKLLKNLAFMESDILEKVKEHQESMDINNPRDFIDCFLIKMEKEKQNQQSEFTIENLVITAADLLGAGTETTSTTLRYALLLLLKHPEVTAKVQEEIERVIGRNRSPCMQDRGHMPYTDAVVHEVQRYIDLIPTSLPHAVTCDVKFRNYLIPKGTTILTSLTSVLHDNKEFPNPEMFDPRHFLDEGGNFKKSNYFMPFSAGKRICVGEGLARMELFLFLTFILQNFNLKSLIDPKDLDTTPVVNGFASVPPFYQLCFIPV
Another data set addresses Cytochrome P450 2E1 (Homo sapiens, UniProt P05181). Put plainly: Inhibition of human CYP2E1 in human liver microsomes by LC-MS/MS analysis. The class given is ADME, Microsome.
A short description of data set [5]: Metabolic stability in human liver microsomes assessed as half life measured after 60 mins by LC-UV analysis. The class given is ADME, Microsome.

Sequence of Cytochrome P450 2D6 (P10635 whole entry): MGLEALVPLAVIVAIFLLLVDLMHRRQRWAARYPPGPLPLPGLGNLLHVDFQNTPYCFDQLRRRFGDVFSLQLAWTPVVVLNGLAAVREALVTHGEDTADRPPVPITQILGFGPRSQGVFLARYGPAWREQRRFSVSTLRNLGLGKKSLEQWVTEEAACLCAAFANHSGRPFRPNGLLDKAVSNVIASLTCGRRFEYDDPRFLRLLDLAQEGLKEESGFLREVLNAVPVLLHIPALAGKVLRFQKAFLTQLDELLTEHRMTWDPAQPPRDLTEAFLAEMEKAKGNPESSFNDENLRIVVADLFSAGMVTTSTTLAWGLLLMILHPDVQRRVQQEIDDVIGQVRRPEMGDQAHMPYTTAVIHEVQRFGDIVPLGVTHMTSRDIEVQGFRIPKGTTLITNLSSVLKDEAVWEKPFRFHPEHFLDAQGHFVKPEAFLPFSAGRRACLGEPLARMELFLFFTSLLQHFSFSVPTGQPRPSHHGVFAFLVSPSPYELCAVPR
Sequence of Cytochrome P450 3A4 (P08684 whole entry): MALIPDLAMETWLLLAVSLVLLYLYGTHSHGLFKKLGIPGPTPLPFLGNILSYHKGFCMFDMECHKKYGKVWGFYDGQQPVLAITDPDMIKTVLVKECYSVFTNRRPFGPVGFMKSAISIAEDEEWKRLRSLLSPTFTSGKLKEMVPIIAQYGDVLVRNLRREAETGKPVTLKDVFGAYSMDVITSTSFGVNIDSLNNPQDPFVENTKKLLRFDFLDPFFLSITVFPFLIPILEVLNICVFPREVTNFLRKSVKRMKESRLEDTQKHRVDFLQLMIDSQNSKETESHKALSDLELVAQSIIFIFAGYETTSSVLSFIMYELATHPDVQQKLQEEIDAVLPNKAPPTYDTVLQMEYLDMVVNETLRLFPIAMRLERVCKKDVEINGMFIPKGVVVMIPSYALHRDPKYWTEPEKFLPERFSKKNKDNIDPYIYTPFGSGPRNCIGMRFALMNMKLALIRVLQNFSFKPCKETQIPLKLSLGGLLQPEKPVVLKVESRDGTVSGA
Sequence of Cytochrome P450 2E1 (P05181 whole entry): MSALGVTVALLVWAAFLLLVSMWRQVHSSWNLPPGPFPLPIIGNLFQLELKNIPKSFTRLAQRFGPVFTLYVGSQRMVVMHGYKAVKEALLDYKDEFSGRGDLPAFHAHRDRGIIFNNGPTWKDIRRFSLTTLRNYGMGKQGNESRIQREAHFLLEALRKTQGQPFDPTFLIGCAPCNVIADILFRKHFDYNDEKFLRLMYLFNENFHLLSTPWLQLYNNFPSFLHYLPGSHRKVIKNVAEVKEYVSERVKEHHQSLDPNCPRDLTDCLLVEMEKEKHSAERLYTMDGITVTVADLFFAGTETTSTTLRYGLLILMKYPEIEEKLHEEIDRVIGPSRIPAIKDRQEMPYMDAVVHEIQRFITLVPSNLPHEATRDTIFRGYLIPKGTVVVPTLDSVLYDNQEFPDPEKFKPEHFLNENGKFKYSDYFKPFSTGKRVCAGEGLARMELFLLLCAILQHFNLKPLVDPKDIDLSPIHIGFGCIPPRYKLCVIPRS

The term IC50 denotes the concentration that inhibits the measured activity by half. Usually half-life stands for how long it takes for the measured level to halve. Regarding `COc1cc(OC)c(/C=C/C(=O)c2ccc(C(F)(F)F)cc2)cc1Cl`, the IC50 against Cytochrome P450 3A4, on Cytochrome P450 2A6, on Cytochrome P450 2D6, against Cytochrome P450 2C8, against Cytochrome P450 1A2 [2] and against Cytochrome P450 2C9 was > 100 µM throughout. The concentration for half-maximal inhibition (IC50) on Cytochrome P450 1A2 [3], against Cytochrome P450 2C19 and on Cytochrome P450 2E1 was > 100 µM throughout. The result in data set [1] was Active. Besides, in data set [4], the remaining at 1 h was determined as 54.5%. Moreover, the half-life in [5] amounted to 1.07 h.
